Reference: patent US20250092065A1, “2-(INDAZOL-5-YL)-6-(PIPERIDIN-4-YL)-1,7-NAPHTHYRIDINE DERIVATIVES AND RELATED COMPOUNDS AS MODULATORS FOR SPLICING NUCLEIC ACIDS AND FOR THE TREATMENT OF PROLIFERATIVE DISEASES” (REMIX THERAPEUTICS INC., priority 2022, published 2025)
pIC50: −log10 of the molar value. Where two headings read alike, the source gives them in different places.

How the values were obtained:
Format in all cases: cell-based, human
[1] = test system: SMN2 mRNA; test: RT-qPCR splicing assay, SMN2 mRNA; settings: Homo sapiens, canonical junction qPCR panel, Table 4; read-out: SMN2 IC50 (decrease in CJ mRNA levels)
Procedure, shortened: (§1)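 A673 or K562 cells treated 24 h at 37 °C with 11-point 3-fold dilutions (top final 10 uM, DMSO ≤0.25%). Lysates analysed by one-step RT-qPCR for canonical (CJ) and alternative-exon (AJ) junctions, normalized to GAPDH, GUSB or PPIA. ΔΔCt vs DMSO, RQ = 2^(−ΔΔCt), expressed as percentage response.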

[2] = test system: MYB mRNA; test: RT-qPCR splicing assay, MYB mRNA canonical (CJ) and alternative (AJ) junction; settings: Homo sapiens; for AC50: MYB alternative junction mRNA, read-out: MYB AJ (increase in AJ mRNA, AC50)
Procedure, shortened: as §1

[3] = test system: MYB; test: HiBiT protein abundance assay, MYB (K562 HiBiT knock-in); settings: HiBiT knock-in K562 cells, 24 hours, top dose 10 μM
Procedure, shortened: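 K562 HiBiT knock-in, 24 h, 37 °C, top 10 μM final, 3-fold ×10, DMSO ≤0.25%. Lytic HiBiT luminescence; PC = parental K562, NC = DMSO; 4PL IC50.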

[4] = test system: HTT mRNA; test: RT-qPCR splicing assay, HTT mRNA canonical (CJ) and alternative (AJ) junction; settings: Homo sapiens; for AC50: HTT alternative junction mRNA, read-out: HTT AJ (increase in AJ mRNA, AC50)
Procedure, shortened: as §1

[5] = MYB canonical junction mRNA, RT-qPCR, read-out: MYB CJ (decrease in CJ mRNA levels, IC50)
[6] = canonical junction qPCR panel, Table 4, read-out: MYB IC50 (decrease in CJ mRNA levels)
[7] = HTT canonical junction mRNA, RT-qPCR, read-out: HTT CJ (decrease in CJ mRNA levels, IC50)
[8] = canonical junction qPCR panel, Table 4, read-out: HTT IC50 (decrease in CJ mRNA levels)

pIC50 [1]	pIC50 [2, 5]	pIC50 [2, 6]	pIC50 [3]	pIC50 [4, 7]	pIC50 [4, 8]	Compound	AC50 ([2]; RT-qPCR)	AC50 ([4]; RT-qPCR)
6.00 to 7.00	6.00 to 7.00	6.00 to 7.00	6.00 to 7.00	6.00 to 7.00	6.00 to 7.00	Cc1nc2cc(O)c(-c3ccc4nc(N5CCC(NC(C)(C)C)CC5)ccc4n3)cc2o1 [Compound 412]	100 to 1000 nM	100 to 1000 nM
> 7.00	> 7.00	> 7.00	> 7.00	> 7.00	> 7.00	Cc1nc2cc(O)c(-c3ccc4nc(N5CC[C@@H](NC(C)(C)C)C5)ncc4n3)cc2o1 [Compound 413, 6-{2-[(3R)-3-(tert-butylamino)pyrrolidin-1-yl]pyrido[3,2-d]pyrimidin-6-yl}-2-methyl-1,3-benzoxazol-5-ol]	< 100 nM	< 100 nM
6.00 to 7.00	5.00 to 6.00	5.00 to 6.00	5.00 to 6.00	> 7.00	> 7.00	Cc1nc2cc(O)c(-c3ccc4nc(N5CC[C@H](NC(C)(C)C)C5)ncc4n3)cc2o1 [Compound 414, 6-{2-[(3S)-3-(tert-butylamino)pyrrolidin-1-yl]pyrido[3,2-d]pyrimidin-6-yl}-2-methyl-1,3-benzoxazol-5-ol]	1000 to 10000 nM	100 to 1000 nM
> 7.00	> 7.00	> 7.00	> 7.00	> 7.00	> 7.00	Cc1nc2c(C)c(O)c(-c3ccc4nc(N5CC[C@H](NC(C)C)C5)ncc4n3)cc2o1 [Compound 416, 6-{2-[(3S)-3-(isopropylamino)pyrrolidin-1-yl]pyrido[3,2-d]pyrimidin-6-yl}-2,4-dimethyl-1,3-benzoxazol-5-ol]	< 100 nM	< 100 nM
> 7.00	6.00 to 7.00	6.00 to 7.00	> 7.00	6.00 to 7.00	6.00 to 7.00	Cc1nc2cc(O)c(-c3ccc4cc(N5CC[C@@H](NC(C)(C)C)C5)ncc4n3)cc2o1 [Compound 417]	100 to 1000 nM	1000 to 10000 nM
6.00 to 7.00	6.00 to 7.00	6.00 to 7.00	6.00 to 7.00	6.00 to 7.00	6.00 to 7.00	Cc1nc2cc(O)c(-c3ccc4nc(N5CCN[C@@H](C6CC6)C5)ccc4n3)cc2o1 [Compound 418]	100 to 1000 nM	100 to 1000 nM
> 7.00	6.00 to 7.00	6.00 to 7.00	6.00 to 7.00	6.00 to 7.00	6.00 to 7.00	Cc1nc2cc(O)c(-c3ccc4nc(N5C[C@@H](C)N[C@@H](C6CC6)C5)ccc4n3)cc2o1 [Compound 419]	100 to 1000 nM	100 to 1000 nM
> 7.00	6.00 to 7.00	6.00 to 7.00	6.00 to 7.00	6.00 to 7.00	6.00 to 7.00	Cc1nc2cc(O)c(-c3ccc4nc(N5C[C@@H](C)N[C@@H](C)C5)ccc4n3)cc2o1 [Compound 420]	100 to 1000 nM	1000 to 10000 nM
6.00 to 7.00	6.00 to 7.00	6.00 to 7.00	6.00 to 7.00	6.00 to 7.00	6.00 to 7.00	Cc1nc2cc(O)c(-c3ccc4nc(N5CCN[C@H](C6CC6)C5)ccc4n3)cc2o1 [Compound 421]	100 to 1000 nM	100 to 1000 nM
> 7.00	6.00 to 7.00	6.00 to 7.00	6.00 to 7.00	6.00 to 7.00	6.00 to 7.00	Cc1nc2cc(O)c(-c3ccc4nc(N5CCN[C@@H](C(C)C)C5)ccc4n3)cc2o1 [Compound 422]	100 to 1000 nM	100 to 1000 nM
> 7.00	5.00 to 6.00	5.00 to 6.00	5.00 to 6.00	5.00 to 6.00	5.00 to 6.00	Cc1nc2cc(O)c(-c3ccc4nc(N5CCC(N)CC5)ccc4n3)cc2o1 [Compound 424]	1000 to 10000 nM	1000 to 10000 nM

More lines, now with the values behind:

Compound	pIC50 [1]	pIC50 [2, 5]	pIC50 [2, 6]	pIC50 [3]	pIC50 [4, 7]	pIC50 [4, 8]	AC50 ([2]; RT-qPCR)	AC50 ([4]; RT-qPCR)
Cn1cc2cc(-c3ncc4nc(C5CCNCC5)ccc4n3)c(O)c(C#N)c2n1 [Compound 403, 6-hydroxy-2-methyl-5-[6-(piperidin-4-yl)pyrido[3,2-d]pyrimidin-2-yl]indazole-7-carbonitrile; trifluoroacetic acid]	> 7.00	6.00 to 7.00	6.00 to 7.00	> 7.00	6.00 to 7.00	6.00 to 7.00	< 100 nM	100 to 1000 nM
Cn1cc2cc(-c3ccc4nc(N5CCC(NC(C)(C)C)C5)ncc4n3)c(O)cc2n1 (stereo not shown) [Compound 404, 5-{2-[3-(tert-butylamino)pyrrolidin-1-yl]pyrido[3,2-d]pyrimidin-6-yl}-2-methylindazol-6-ol]	> 7.00	6.00 to 7.00	6.00 to 7.00	6.00 to 7.00	> 7.00	> 7.00	100 to 1000 nM	< 100 nM
COc1cc(-c2ccc3nc(N4CCC(NC(C)(C)C)C4)ncc3n2)cnn1 (stereo not shown) [Compound 405, N-tert-butyl-1-[6-(6-methoxypyridazin-4-yl)pyrido[3,2-d]pyrimidin-2-yl]pyrrolidin-3-amine]	5.00 to 6.00	5.00 to 6.00	5.00 to 6.00	5.00 to 6.00	5.00 to 6.00	5.00 to 6.00	1000 to 10000 nM	1000 to 10000 nM
CN[C@H]1CCN(c2ccc3nc(-c4cc(C#N)c5nc(C)cn5c4)ncc3n2)C1 [Compound 406, 2-methyl-6-{6-[(3S)-3-(methylamino)pyrrolidin-1-yl]pyrido[3,2-d]pyrimidin-2-yl}imidazo[1,2-a]pyridine-8-carbonitrile]	6.00 to 7.00	5.00 to 6.00	5.00 to 6.00	6.00 to 7.00	6.00 to 7.00	6.00 to 7.00	100 to 1000 nM	1000 to 10000 nM
CN[C@@H]1CCN(c2ccc3nc(-c4cc(C#N)c5nc(C)cn5c4)ncc3n2)C1 [Compound 407, 2-methyl-6-{6-[(3R)-3-(methylamino)pyrrolidin-1-yl]pyrido[3,2-d]pyrimidin-2-yl}imidazo[1,2-a]pyridine-8-carbonitrile]	> 7.00	6.00 to 7.00	6.00 to 7.00	6.00 to 7.00	6.00 to 7.00	6.00 to 7.00	100 to 1000 nM	1000 to 10000 nM
Cc1nc2cc(O)c(-c3ccc4nc(N5CCNCC5)ccc4n3)cc2o1 [Compound 408, 2-methyl-6-[6-(piperazin-1-yl)-1,5-naphthyridin-2-yl]-1,3-benzoxazol-5-ol]	> 7.00	6.00 to 7.00	6.00 to 7.00	6.00 to 7.00	6.00 to 7.00	6.00 to 7.00	100 to 1000 nM	1000 to 10000 nM
Cc1nc2cc(O)c(-c3ccc4nc(N5CCN[C@@H](C)C5)ccc4n3)cc2o1 [Compound 409]	> 7.00	6.00 to 7.00	6.00 to 7.00	6.00 to 7.00	6.00 to 7.00	6.00 to 7.00	100 to 1000 nM	100 to 1000 nM
Cc1nc2cc(O)c(-c3ccc4nc(N5CCN6CCCC6C5)ccc4n3)cc2o1 (stereo not shown) [Compound 410]	> 7.00	6.00 to 7.00	6.00 to 7.00	6.00 to 7.00	6.00 to 7.00	6.00 to 7.00	100 to 1000 nM	100 to 1000 nM
Cc1nc2cc(O)c(-c3ccc4nc(N5CCNC6(CC6)C5)ccc4n3)cc2o1 [Compound 411]	> 7.00	6.00 to 7.00	6.00 to 7.00	6.00 to 7.00	5.00 to 6.00	5.00 to 6.00	100 to 1000 nM	> 10000 nM
